Measured values: patent publication US10821115B2, “Compounds that inhibit Mcl-1 protein” (priority 2017, dated 2020)

Tests used:
[1] = biological target: recombinant human Mcl-1 (residues 171-327) / Bim interaction (Homo sapiens (Human), UniProt Q07820); assay: biochemical; assay type: binding; settings: 0.1 nM Mcl-1(171-327), 0.05 nM biotin-Bim (51-76); read-out: Mcl-1 HTRF IC50
[2] = test system: human multiple myeloma cell line, OPM-2; assay: Cell viability assay (OPM-2 10 FBS), CellTiter-Glo; assay type: cell-based; settings: Homo sapiens, OPM-2, 16 h, read-out: OPM-2 10% FBS IC50 IP, OPM-2 cells, 10% FBS, 16 h incubation
Procedure, shortened: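 Serially diluted test compounds are incubated 16 h with cells (3000/well) in RPMI 1640 supplemented with 10% FBS. Viability is then measured by luminescence and IC50 calculated by 4-parameter logistic fit.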

Chain of recombinant human Mcl-1 (residues 171-327) / Bim interaction (Q07820 171-327): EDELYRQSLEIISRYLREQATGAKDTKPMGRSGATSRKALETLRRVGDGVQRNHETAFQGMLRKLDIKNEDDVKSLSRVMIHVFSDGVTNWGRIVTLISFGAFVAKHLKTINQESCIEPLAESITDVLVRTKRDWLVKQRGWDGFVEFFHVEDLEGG

Compound CCO[C@]1(CN2CCN(C(C)(C)C)CC2)/C=C/C[C@H](C)[C@@H](CCOC)S(=O)(=O)NC(=O)c2ccc3c(c2)N(C[C@@H]2CC[C@H]21)C[C@@]1(CCCc2cc(Cl)ccc21)CO3 [Example 190, (1S,3′R,6′R,7′R,8′E,11′S,12′R)-7′-((4-tert-butyl-1-piperazinyl)methyl)-6-chloro-7′-ethoxy-12′-(2-methoxyethyl)-11′-methyl-3,4-dihydro-2H,15′H-spiro[naphthalene-1,22′-[20]oxa[13]thia[1,14]diazatetracyclo [14.7.2.0~3,6~.0~19,24~]pentacosa[8,16,18,24]tetraen]-15′-one 13′,13′-dioxide] has an IC50 [1] of 0.087 nM and an IC50 [2] of 53 nM.
COCC[C@@H]1[C@@H](C)C/C=C/[C@@](CN2C[C@@H](C)N(C)[C@@H](C)C2)(OC)[C@@H]2CC[C@H]2CN2C[C@@]3(CCCc4cc(Cl)ccc43)COc3ccc(cc32)C(=O)NS1(=O)=O [Example 191, (1S,3′R,6′R,7′R,8′E,11′S,12′R)-6-chloro-7′-methoxy-12′-(2-methoxyethyl)-11′-methyl-7′-(((3R,5S)-3,4,5-trimethyl-1-piperazinyl)methyl)-3,4-dihydro-2H,15′H-spiro[naphthalene-1,22′-[20]oxa[13]thia[1,14]diazatetracyclo [14.7.2.0~3,6~.0~19,24~]pentacosa[8,16,18,24]tetrae11]-15′-one 13′,13′-dioxide] gave an IC50 [1] of 0.096 nM and an IC50 [2] of 42 nM.
COCC[C@@H]1[C@@H](C)C/C=C/[C@@](CN2CCN(C3(C)COC3)CC2)(OC)[C@@H]2CC[C@H]2CN2C[C@@]3(CCCc4cc(Cl)ccc43)COc3ccc(cc32)C(=O)NS1(=O)=O [Example 192, (1S,3′R,6′R,7′R,8′E,11′S,12′R)-6-chloro-7′-methoxy-12′-(2-methoxyethyl)-11′-methyl-7′-((4-(3-methyl-3-oxetanyl)-1-piperazinyl)methyl)-3,4-dihydro-2H,15′H-spiro[naphthalene-1,22′-[20]oxa[13]thia[1,14]diazatetracyclo [14.7.2.0~3,6~.0~19,24~]pentacosa[8,16,18,24]tetraen]-15′-one 13′,13′-dioxide] showed an IC50 [1] of 0.078 nM and an IC50 [2] of 65 nM.
COCCN1CCN(C[C@]2(OC)/C=C/C[C@H](C)[C@@H](C)S(=O)(=O)NC(=O)c3ccc4c(c3)N(C[C@@H]3CC[C@H]32)C[C@@]2(CCCc3cc(Cl)ccc32)CO4)CC1 [Example 195, (1S,3′R,6′R,7′S,8′E,11′S,12′R)-6-chloro-7′-methoxy-7′-((4-(2-methoxyethyl)-1-piperazinyl)methyl)-11′,12′-dimethyl-3,4-dihydro-2H,15′H-spiro[naphthalene-1,22′-[20]oxa[13]thia[1,14]diazatetracyclo [14.7.2.0~3,6~.0~19,24~]pentacosa[8,16,18,24]tetraen]-15′-one 13′,13′-dioxide] was tested, and the IC50 [1] was 0.214 nM and the IC50 [2] was 65 nM.
For CO[C@@]1(CN2CCN(C)CC2)/C=C/C[C@H](C)[C@@H](C)S(=O)(=O)NC(=O)c2ccc3c(c2)N(C[C@@H]2CC[C@H]21)C[C@@]1(CCCc2cc(Cl)ccc21)CO3 [Example 196, (1S,3′R,6′R,7′S,8′E,11′S,12′R)-6-chloro-7′-methoxy-11′,12′-dimethyl-7′-((4-methyl-1-piperazinyl)methyl)-3,4-dihydro-2H,15′H-spiro[naphthalene-1,22′-[20]oxa[13]thia[1,14]diazatetracyclo [14.7.2.0~3,6~.0~19,24~]pentacosa[8,16,18,24]tetraen]-15′-one 13′,13′-dioxide], the IC50 [1] was 0.47 nM and the IC50 [2] was 304 nM.
In the case of CO[C@@]1(CN2CCOC3(COC3)C2)/C=C/C[C@H](C)[C@@H](C)S(=O)(=O)NC(=O)c2ccc3c(c2)N(C[C@@H]2CC[C@H]21)C[C@@]1(CCCc2cc(Cl)ccc21)CO3 [Example 198, (1S,3′R,6′R,7′S,8′E,11′S,12′R)-6-chloro-7′-(2,5-dioxa-8-azaspiro[3.5]non-8-ylmethyl)-7′-methoxy-11′,12′-dimethyl-3,4-dihydro-2H,15′H-spiro[naphthalene-1,22′-[20]oxa[13]thia[1,14]diazatetracyclo [14.7.2.0~3,6~.0~19,24~]pentacosa[8,16,18,24]tetraen]-15′-one 13′,13′-dioxide], the IC50 [1] is reported as 0.181 nM and the IC50 [2] is reported as 1310 nM.
With COC[C@H]1CN(C[C@]2(OC)/C=C/C[C@H](C)[C@@H](C)S(=O)(=O)NC(=O)c3ccc4c(c3)N(C[C@@H]3CC[C@H]32)C[C@@]2(CCCc3cc(Cl)ccc32)CO4)CCO1 [Example 199, (1S,3′R,6′R,7′S,8′E,11′S,12′R)-6-chloro-7′-methoxy-7′-(((2R)-2-(methoxymethyl)-4-morpholinyl)methyl)-11′,12′-dimethyl-3,4-dihydro-2H,15′H-spiro[naphthalene-1,22′-[20]oxa[13]thia[1,14]diazatetracyclo [14.7.2.0~3,6~.0~19,24~]pentacosa[8,16,18,24]tetraen]-15′-one 13′,13′-dioxide] the IC50 [1] was 0.119 nM and the IC50 [2] was 208 nM.
Work on CO[C@@]1(CN2CCc3nocc3C2)/C=C/C[C@H](C)[C@@H](C)S(=O)(=O)NC(=O)c2ccc3c(c2)N(C[C@@H]2CC[C@H]21)C[C@@]1(CCCc2cc(Cl)ccc21)CO3 [Example 200] yielded an IC50 [1] of 0.315 nM and an IC50 [2] of 583 nM.
For CO[C@@]1(CN2CCn3ccnc3C2)/C=C/C[C@H](C)[C@@H](C)S(=O)(=O)NC(=O)c2ccc3c(c2)N(C[C@@H]2CC[C@H]21)C[C@@]1(CCCc2cc(Cl)ccc21)CO3 [Example 201, (1S,3′R,6′R,7′S,8′E,11′S,12′R)-6-chloro-7′-(5,6-dihydroimidazo[1,2-a]pyrazin-7(8H)-ylmethyl)-7′-methoxy-11′,12′-dimethyl-3,4-dihydro-2H,15′H-spiro[naphthalene-1,22′-[20]oxa[13]thia[1,14]diazatetracyclo [14.7.2.0~3,6~.0~19,24~]pentacosa[8,16,18,24]tetraen]-15′-one 13′,13′-dioxide], the IC50 [1] was 0.119 nM and the IC50 [2] was 244 nM.
Work on CO[C@@]1(CN2CC3(C2)CS(=O)(=O)C3)/C=C/C[C@H](C)[C@@H](C)S(=O)(=O)NC(=O)c2ccc3c(c2)N(C[C@@H]2CC[C@H]21)C[C@@]1(CCCc2cc(Cl)ccc21)CO3 [Example 202, (1S,3′R,6′R,7′S,8′E,11′S,12′R)-6-chloro-7′-((2,2-dioxido-2-thia-6-azaspiro[3 .3]hept-6-yl)methyl)-7′-methoxy-11′,12′-dimethyl-3,4-dihydro-2H,15′H-spiro[naphthalene-1,22′-[20]oxa[13]thia[1,14]diazatetracyclo [14.7.2.0~3,6~.0~19,24~]pentacosa[8,16,18,24]tetraen]-15′-one 13′,13′-dioxide] yielded an IC50 [1] of 0.058 nM and an IC50 [2] of 142 nM.
Compound CO[C@@]1(CN2CC3(COC3)C2)/C=C/C[C@H](C)[C@@H](C)S(=O)(=O)NC(=O)c2ccc3c(c2)N(C[C@@H]2CC[C@H]21)C[C@@]1(CCCc2cc(Cl)ccc21)CO3 [Example 203, (1S,3′R,6′R,7′S,8′E,11′S,12′R)-6-chloro-7′-methoxy-11′,12′-dimethyl-7′-(2-oxa-6-azaspiro[3.3]hept-6-ylmethyl)-3,4-dihydro-2H,15′H-spiro[naphthalene-1,22′-[20]oxa[13]thia[1,14]diazatetracyclo [14.7.2.0~3,6~.0~19,24~]pentacosa[8,16,18,24]tetraen]-15′-one 13′,13′-dioxide] has an IC50 [1] of 0.113 nM and an IC50 [2] of 112 nM.
CO[C@@]1(CN2CC3(C2)CN(C(=O)OC(C)(C)C)C3)/C=C/C[C@H](C)[C@@H](C)S(=O)(=O)NC(=O)c2ccc3c(c2)N(C[C@@H]2CC[C@H]21)C[C@@]1(CCCc2cc(Cl)ccc21)CO3 [Example 204, tert-butyl 6-(((1S,3′R,6′R,7′S,8′E,11′S, 12′R)-6-chloro-7′-methoxy-11′,12′-dimethyl-13′,13′-dioxido-15′-oxo-3,4-dihydro-2H-spiro[naphthalene-1,22′-[20]oxa[13]thia[1,14]diazatetracyclo [14.7.2.0~3,6~.0~19,24~]pentacosa[8,16,18,24]tetraen]-7′-yl)methyl)-2,6-diazaspiro[3.3]heptane-2-carboxylate] was tested, and the IC50 [1] was 0.23 nM and the IC50 [2] was 319 nM.
In the case of CO[C@@]1(CN2CCc3[nH]nnc3C2)/C=C/C[C@H](C)[C@@H](C)S(=O)(=O)NC(=O)c2ccc3c(c2)N(C[C@@H]2CC[C@H]21)C[C@@]1(CCCc2cc(Cl)ccc21)CO3 [Example 205, (1S,3′R,6′R,7′S,8′E,11′S,12′R)-6-chloro-7′-methoxy-11′,12′-dimethyl-7′-(1,4,6,7-tetrahydro-5H-[1,2,3]triazolo[4,5-c]pyridin-5-ylmethyl)-3,4-dihydro-2H,15′H-spiro[naphthalene-1,22′-[20]oxa[13]thia[1,14]diazatetracyclo [14.7.2.0~3,6~.0~19,24~]pentacosa[8,16,18,24]tetraen]-15′-one 13′,13′-dioxide], the IC50 [1] is reported as 0.263 nM and the IC50 [2] is reported as 437 nM.
With CO[C@@]1(CN2CC(CO)(CO)C2)/C=C/C[C@H](C)[C@@H](C)S(=O)(=O)NC(=O)c2ccc3c(c2)N(C[C@@H]2CC[C@H]21)C[C@@]1(CCCc2cc(Cl)ccc21)CO3 [Example 206, (1S,3′R,6′R,7′S,8′E,11′S,12′R)-7′-((3,3-bis(hydroxymethyl)-1-azetidinyl)methyl)-6-chloro-7′-methoxy-11′,12′-dimethyl-3,4-dihydro-2H,15′H-spiro[naphthalene-1,22′-[20]oxa[13]thia[1,14]diazatetracyclo [14.7.2.0~3,6~.0~19,24~]pentacosa[8,16,18,24]tetraen]-15′-one 13′,13′-dioxide] the IC50 [1] was 0.223 nM and the IC50 [2] was 6300 nM.
CO[C@@]1(CN2CCn3nncc3C2)/C=C/C[C@H](C)[C@@H](C)S(=O)(=O)NC(=O)c2ccc3c(c2)N(C[C@@H]2CC[C@H]21)C[C@@]1(CCCc2cc(Cl)ccc21)CO3 [Example 207, (1S,3′R,6′R,7′S,8′E,11′S,12′R)-6-chloro-7′-(6,7-dihydro[1,2,3]triazolo[1,5-a]pyrazin-5(4H)-ylmethyl)-7′-methoxy-11′,12′-dimethyl-3,4-dihydro-2H,15′H-spiro[naphthalene-1,22′-[20]oxa[13]thia[1,14]diazatetracyclo [14.7.2.0~3,6~.0~19,24~]pentacosa[8,16,18,24]tetraen]-15′-one 13′,13′-dioxide] was tested, and the IC50 [1] was 0.137 nM and the IC50 [2] was 395 nM.
